Data as given in US12590091B2, “1H-pyrrolo[3,2-C]pyridine and 1H-pyrrolo[2,3-C]pyridine derivatives as TLR9 inhibitors for the treatment of fibrosis” (BRISTOL-MYERS SQUIBB COMPANY, priority 2020, dated 2026).

Target: T1, human TLR7 (Homo sapiens, UniProt Q9NYK1)
T1 construct: host or cells: HEK-Blue cells
T1 sequence (Q9NYK1 27-1049): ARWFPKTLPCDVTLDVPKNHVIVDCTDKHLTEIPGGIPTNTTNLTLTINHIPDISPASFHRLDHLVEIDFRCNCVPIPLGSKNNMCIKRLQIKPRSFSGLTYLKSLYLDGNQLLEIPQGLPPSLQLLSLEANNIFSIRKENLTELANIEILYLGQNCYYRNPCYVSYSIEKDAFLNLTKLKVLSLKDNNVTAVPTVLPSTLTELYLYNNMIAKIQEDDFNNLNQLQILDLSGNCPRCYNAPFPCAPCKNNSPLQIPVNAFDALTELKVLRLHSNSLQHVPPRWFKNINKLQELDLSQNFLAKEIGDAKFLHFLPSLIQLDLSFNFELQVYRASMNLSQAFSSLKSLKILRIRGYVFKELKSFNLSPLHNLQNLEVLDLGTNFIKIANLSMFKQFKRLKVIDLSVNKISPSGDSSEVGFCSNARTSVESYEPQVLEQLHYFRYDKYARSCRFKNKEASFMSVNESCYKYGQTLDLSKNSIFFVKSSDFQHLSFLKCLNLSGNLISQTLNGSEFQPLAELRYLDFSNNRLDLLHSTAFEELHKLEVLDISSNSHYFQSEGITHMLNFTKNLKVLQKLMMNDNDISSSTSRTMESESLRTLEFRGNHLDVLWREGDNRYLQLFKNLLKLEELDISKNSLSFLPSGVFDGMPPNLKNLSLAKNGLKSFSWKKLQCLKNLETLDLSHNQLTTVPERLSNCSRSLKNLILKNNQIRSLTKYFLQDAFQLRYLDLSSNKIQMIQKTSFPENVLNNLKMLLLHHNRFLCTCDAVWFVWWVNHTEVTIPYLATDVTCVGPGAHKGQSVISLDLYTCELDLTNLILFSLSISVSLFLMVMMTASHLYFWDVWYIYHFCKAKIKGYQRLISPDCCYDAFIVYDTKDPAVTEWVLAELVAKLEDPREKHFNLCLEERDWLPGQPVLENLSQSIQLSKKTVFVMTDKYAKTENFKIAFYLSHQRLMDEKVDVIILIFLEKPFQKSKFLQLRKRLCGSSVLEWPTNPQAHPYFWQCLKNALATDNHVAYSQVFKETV
Experiment: TLR7 inhibition reporter assay (HEK-Blue cells, SEAP reporter)
Format: cell-based
Conditions: HEK-Blue cells overexpressing human TLR7, stimulated with gardiquimod 7.5 μM, 22 hour incubation
Experimental: TLR7/8/9 Inhibition Reporter Assays
HEK-Blue™-cells (Invivogen) overexpressing human TLR7, TLR8 or TLR9 receptors were used for screening inhibitors of these receptors using an inducible SEAP (secreted embryonic alkaline phosphatase) reporter gene under the control of the IFN-β minimal promoter fused to five NF-κB and AP-1-binding sites. Briefly, cells are seeded into Greiner 384 well plates (15000 cells per well for TLR7, 20,000 for TLR8 and 25,000 for TLR9) and then treated with test compounds in DMSO to yield a final dose response concentration range of 0.05 nM-50 μM. After a 30 minute compound pre-treatment at room temperature, the cells are then stimulated with a TLR7 ligand (gardiquimod at a final concentration of 7.5 μM), TLR8 ligand (R848 at a final concentration of 15.9 μM) or TLR9 ligand (ODN2006 at a final concentration of 5 nM) to activate NF-κB and AP-1 which induce the production of SEAP. After a 22 hour incubation at 37° C., 5% CO2, SEAP levels are determined with the addition of HEK-Blue™ Detection reagent (Invivogen), a cell culture medium that allows for detection of SEAP, according to manufacturer's specifications. The percent inhibition is determined as the % reduction in the HEK-Blue signal present in wells treated with agonist plus DMSO alone compared to wells treated with a known inhibitor.

SMILES | IC50
COc1ccc(-c2c(C)n(C)c3cnc(-c4ccc(N5CCN(CC(C)(C)O)CC5)cc4)cc23)cc1OC [Example 3, 1-(4-(4-(3-(3,4-Dimethoxyphenyl)-1,2-dimethyl-1H-pyrrolo[2,3-c]pyridin-5-yl)phenyl)piperazin-1-yl)-2-methylpropan-2-ol] | 3.3 µM
COc1ccc(-c2c(C)[nH]c3cnc(C4CCN(C5CCN(C(=O)OCc6ccccc6)CC5)CC4)cc23)cc1OC [Example 4, Benzyl 4-(3-(3,4-dimethoxyphenyl)-2-methyl-1H-pyrrolo[2,3-c]pyridin-5-yl)-[1,4′-bipiperidine]-1′-carboxylate] | 9.5 µM
COc1ccc(-c2c(C)[nH]c3cnc(C4CCN(C(=O)C5CCN(C6CC6)CC5)CC4)cc23)cc1OC [Example 5, (1-Cyclopropylpiperidin-4-yl)(4-(3-(3,4-dimethoxyphenyl)-2-methyl-1H-pyrrolo[2,3-c]pyridin-5-yl)piperidin-1-yl)methanone] | 8.2 µM
COc1ccc(-c2c(C)[nH]c3cnc(C4CCN(C5CCN(C(=O)c6ccccc6)CC5)CC4)cc23)cc1OC [Example 14, (4-(3-(3,4-dimethoxyphenyl)-2-methyl-1H-pyrrolo[2,3-c]pyridin-5-yl)-[1,4′-bipiperidin]-1′-yl) (phenyl)methanone] | 8.2 µM
COc1ccc(-c2c(C)[nH]c3cnc(C4CCN(C5CCN(C(=O)C(C)C)CC5)CC4)cc23)cc1OC [Example 15, 1-(4-(3-(3,4-dimethoxyphenyl)-2-methyl-1H-pyrrolo[2,3-c]pyridin-5-yl)-[1,4′-bipiperidin]-1′-yl)-2-methylpropan-1-one] | 14 µM
COc1ccc(-c2c(C)[nH]c3cnc(C4CCN(C(=O)CN5CCCCC5)CC4)cc23)cc1OC [Example 16, 1-(4-(3-(3,4-dimethoxyphenyl)-2-methyl-1H-pyrrolo[2,3-c]pyridin-5-yl)piperidin-1-yl)-2-(piperidin-1-yl)ethan-1-one] | 5.7 µM
COc1ccc(-c2c(C)n(C)c3cnc(C4CCN(C5CCN(CC(C)C)CC5)CC4)cc23)cc1OC [Example 17, 3-(3,4-dimethoxyphenyl)-5-(1′-isobutyl-[1,4′-bipiperidin]-4-yl)-1,2-dimethyl-1H-pyrrolo[2,3-c]pyridine] | 2.3 µM
COc1ccc(-c2cc3cnc(C4CCN(C(=O)CN5CCCCC5)CC4)cc3n2C)cc1OC [Example 25, 1-(4-(2-(3,4-dimethoxyphenyl)-1-methyl-1H-pyrrolo[3,2-c]pyridin-6-yl)piperidin-1-yl)-2-(piperidin-1-yl)ethan-1-one] | 4.5 µM
COc1ccc(-c2cc3cnc(C4CCN(C5CCN(C(=O)c6ccccc6)CC5)CC4)cc3n2C)cc1OC [Example 26, (4-(2-(3,4-dimethoxyphenyl)-1-methyl-1H-pyrrolo[3,2-c]pyridin-6-yl)-[1,4′-bipiperidin]-1′-yl)(phenyl)methanone] | 7.3 µM
COc1ccc(-c2cc3cnc(C4CCN(Cc5ccc(C(F)(F)F)nc5)CC4)cc3n2C)cc1OC [Example 28, 2-(3,4-dimethoxyphenyl)-1-methyl-6-(1-((6-(trifluoromethyl)pyridin-3-yl)methyl)piperidin-4-yl)-1H-pyrrolo[3,2-c]pyridine] | > 50 µM
COc1ccc(-c2cc3cnc(-c4ccc(N5CCN(C(=O)c6ccccc6)CC5)cc4)cc3n2C)cc1OC [Example 29, (4-(4-(2-(3,4-dimethoxyphenyl)-1-methyl-1H-pyrrolo[3,2-c]pyridin-6-yl)phenyl)piperazin-1-yl)(phenyl)methanone] | 14.4 µM

Continued, values first:

IC50 | SMILES
1.7 µM | COc1ccc(-c2[nH]c3cnc(-c4ccc(N5CCN(C(C)C)CC5)cc4)cc3c2C)cc1OC [Example 1, 2-(3,4-Dimethoxyphenyl)-5-(4-(4-isopropylpiperazin-1-yl)phenyl)-3-methyl-1H-pyrrolo[2,3-c]pyridine]
2.7 µM | COc1ccc(-c2c(C)[nH]c3cnc(-c4ccc(N5CCN(C(C)C)CC5)cc4)cc23)cc1OC [Example 2, 3-(3,4-dimethoxyphenyl)-5-(4-(4-isopropylpiperazin-1-yl)phenyl)-2-methyl-1H-pyrrolo[2,3-c]pyridine]
8 µM | COc1ccc(-c2c(C)[nH]c3cnc(C4CCN(c5cc(C)nc(C)c5)CC4)cc23)cc1OC [Example 6, 3-(3,4-Dimethoxyphenyl)-5-(1-(2,6-dimethylpyridin-4-yl)piperidin-4-yl)-2-methyl-1H-pyrrolo[2,3-c]pyridine]
2.9 µM | COc1ccc(-c2cc3cnc(-c4ccc(N5CCN(CC6CC6)CC5)cc4)cc3n2C)cc1OC [Example 9, 6-(4-(4-(Cyclopropylmethyl)piperazin-1-yl)phenyl)-2-(3,4-dimethoxyphenyl)-1-methyl-1H-pyrrolo[3,2-c]pyridine]
13.8 µM | COc1ccc(-c2cc3cnc(-c4ccc(N5CCN(C6CCC6)CC5)cc4)cc3n2C)cc1OC [Example 10, 6-(4-(4-Cyclobutylpiperazin-1-yl)phenyl)-2-(3,4-dimethoxyphenyl)-1-methyl-1H-pyrrolo[3,2-c]pyridine]
17.3 µM | COc1ccc(-c2c(C)c3cc(C4CCN(C5CCN(CC(C)C)CC5)CC4)ncc3n2C)cc1OC [Example 13, 2-(3,4-dimethoxyphenyl)-5-(1′-isobutyl-[1,4′-bipiperidin]-4-yl)-1,3-dimethyl-1H-pyrrolo[2,3-c]pyridine]
13.6 µM | COc1ccc(-c2c(C)n(C)c3cnc(C4CCN(C5CCN(C(=O)C(C)C)CC5)CC4)cc23)cc1OC [Example 18, 1-(4-(3-(3,4-dimethoxyphenyl)-1,2-dimethyl-1H-pyrrolo[2,3-c]pyridin-5-yl)-[1,4′-bipiperidin]-1′-yl)-2-methylpropan-1-one]
5.2 µM | COc1ccc(-c2c(C)n(C)c3cnc(C4CCN(C5CCN(C(=O)c6ccccc6)CC5)CC4)cc23)cc1OC [Example 19, (4-(3-(3,4-dimethoxyphenyl)-1,2-dimethyl-1H-pyrrolo[2,3-c]pyridin-5-yl)-[1,4′-bipiperidin]-1′-yl)(phenyl)methanone]
9.2 µM | CCOC(=O)N1CCC(N2CCC(c3cc4c(-c5ccc(OC)c(OC)c5)c(C)n(C)c4cn3)CC2)CC1 [Example 20, ethyl 4-(3-(3,4-dimethoxyphenyl)-1,2-dimethyl-1H-pyrrolo[2,3-c]pyridin-5-yl)-[1,4′-bipiperidine]-1′-carboxylate]
26 µM | COc1ccc(-c2c(C)[nH]c3cnc(C4CCN(C(=O)CN5CCCC5)CC4)cc23)cc1OC [Example 21, 1-(4-(3-(3,4-dimethoxyphenyl)-2-methyl-1H-pyrrolo[2,3-c]pyridin-5-yl)piperidin-1-yl)-2-(pyrrolidin-1-yl)ethan-1-one]
9.7 µM | COc1ccc(-c2c(C)[nH]c3cnc(C4CCN(C(=O)CN(C)C)CC4)cc23)cc1OC [Example 22, 1-(4-(3-(3,4-dimethoxyphenyl)-2-methyl-1H-pyrrolo[2,3-c]pyridin-5-yl)piperidin-1-yl)-2-(dimethylamino)ethan-1-one]
> 50 µM | COc1ccc(-c2c(C)[nH]c3cnc(C4CCN(C(=O)CCN5CCCC5)CC4)cc23)cc1OC [Example 23, 1-(4-(3-(3,4-dimethoxyphenyl)-2-methyl-1H-pyrrolo[2,3-c]pyridin-5-yl)piperidin-1-yl)-3-(pyrrolidin-1-yl)propan-1-one]
3.2 µM | COc1ccc(-c2cc3cnc(-c4ccc(N5CCN(C(C)C)CC5)cc4)cc3n2C)cc1OC [Example 24, 2-(3,4-dimethoxyphenyl)-6-(4-(4-isopropylpiperazin-1-yl)phenyl)-1-methyl-1H-pyrrolo[3,2-c]pyridine]
2.6 µM | COc1ccc(-c2cc3cnc(-c4ccc(N5CCN(C)CC5)cc4)cc3n2C)cc1OC [Example 27, 2-(3,4-dimethoxyphenyl)-1-methyl-6-(4-(4-methylpiperazin-1-yl)phenyl)-1H-pyrrolo[3,2-c]pyridine]
